Molecules are shown by their SMILES.

For this assay, the system named is MV-4-11 cells. Nature of the assay: Gene expression microarray analysis (Affymetrix PrimeView) and GSEA. It counts as cell-based, human. Set-up: RFU PODN (11730768_x_at) / Fold change /veh PODN (11730768_x_at) / RFU LINC00158 (11744669_a_at) / Fold change /veh LINC00158 (11744669_a_at) / RFU DUSP10 (11751237_a_at) / Fold change /veh DUSP10 (11751237_a_at) / RFU ID3 (11757404_x_at) / Fold change /veh ID3 (11757404_x_at) / RFU PLEKHG5 (11737974_s_at) / Fold change /veh PLEKHG5 (11737974_s_at) / RFU LRRC4B (11730491_at) / Fold change /veh LRRC4B (11730491_at) / RFU GIMAP4 (11747438_a_at) / Fold change /veh GIMAP4 (11747438_a_at) / RFU KRT8 (11758183_x_at) / Fold change /veh KRT8 (11758183_x_at) / RFU CNN1 (11734310_a_at) / Fold change /veh CNN1 (11734310_a_at) / RFU VPS37D (11726825_at) / Fold change /veh VPS37D (11726825_at) / RFU C10orf10 (11716522_x_at) / Fold change /veh C10orf10 (11716522_x_at) / RFU KIR2DL2 /// KIR2DL4 /// KIR2DL5A /// KIR2DL5B /// KIR2DS1 /// KIR2DS2 /// KIR2DS3 /// KIR2DS4 /// KIR3DL3 /// KIR3DL3 /// KIR3DS1 (11738374_at) / Fold change /veh KIR2DL2 /// KIR2DL4 /// KIR2DL5A /// KIR2DL5B /// KIR2DS1 /// KIR2DS2 /// KIR2DS3 /// KIR2DS4 /// KIR3DL3 /// KIR3DL3 /// KIR3DS1 (11738374_at) / RFU C1QL1 (11718748_at) / Fold change /veh C1QL1 (11718748_at) / RFU TMPRSS4 (11747572_a_at) / Fold change /veh TMPRSS4 (11747572_a_at) / RFU HAMP (11756126_x_at) / Fold change /veh HAMP (11756126_x_at) / RFU RNFT2 (11725882_a_at) / Fold change /veh RNFT2 (11725882_a_at) / RFU NR4A2 (11747474_a_at) / Fold change /veh NR4A2 (11747474_a_at) / RFU ABCC12 (11746883_a_at) / Fold change /veh ABCC12 (11746883_a_at) / RFU TMEM136 (11760407_x_at) / Fold change /veh TMEM136 (11760407_x_at) / RFU CLDN22 /// WWC2 (11732394_at) / Fold change /veh CLDN22 /// WWC2 (11732394_at) / RFU HLA-DPB1 (11760878_x_at) / Fold change /veh HLA-DPB1 (11760878_x_at) / RFU SPINT1 (11716480_a_at) / Fold change /veh SPINT1 (11716480_a_at) / RFU GAP43 (11754022_s_at) / Fold change /veh GAP43 (11754022_s_at) / RFU A4GNT (11735810_at) / Fold change /veh A4GNT (11735810_at) / RFU PRB3 (11715151_x_at) / Fold change /veh PRB3 (11715151_x_at) / RFU TUBB4B (11761932_at) / Fold change /veh TUBB4B (11761932_at) / RFU CAPN14 (11732068_a_at) / Fold change /veh CAPN14 (11732068_a_at) / RFU TMCC2 (11721928_a_at) / Fold change /veh TMCC2 (11721928_a_at) / RFU IRGQ (11745062_a_at) / Fold change /veh IRGQ (11745062_a_at) / RFU FAM174B (11720279_a_at) / Fold change /veh FAM174B (11720279_a_at) / RFU TMPRSS4 (11748680_a_at) / Fold change /veh TMPRSS4 (11748680_a_at) / RFU FAM212B (11763350_a_at) / Fold change /veh FAM212B (11763350_a_at) / RFU PLEKHG5 (11743358_a_at) / Fold change /veh PLEKHG5 (11743358_a_at) / RFU ZSCAN30 (11745921_a_at) / Fold change /veh ZSCAN30 (11745921_a_at) / RFU CMKLR1 (11741424_a_at) / Fold change /veh CMKLR1 (11741424_a_at) / RFU LOC101060620 /// MAPK8IP1 (11723275_at) / Fold change /veh LOC101060620 /// MAPK8IP1 (11723275_at) / RFU SPTSSB (11747773_x_at) / Fold change /veh SPTSSB (11747773_x_at) / RFU PRSS12 (11739890_at) / Fold change /veh PRSS12 (11739890_at) / RFU BIN1 (11741810_x_at) / Fold change /veh BIN1 (11741810_x_at) / RFU WNT11 (11732464_a_at) / Fold change /veh WNT11 (11732464_a_at) / RFU C10orf10 (11716521_a_at) / Fold change /veh C10orf10 (11716521_a_at) / RFU C5orf56 (11738089_at) / Fold change /veh C5orf56 (11738089_at) / RFU CYB561 (11721691_x_at) / Fold change /veh CYB561 (11721691_x_at) / RFU ANKRD19P (11752326_a_at) / Fold change /veh ANKRD19P (11752326_a_at) / RFU OR2T12 /// OR2T33 /// OR2T8 (11738714_s_at) / Fold change /veh OR2T12 /// OR2T33 /// OR2T8 (11738714_s_at) / RFU VCAN (11748164_a_at) / Fold change /veh VCAN (11748164_a_at) / RFU JSRP1 (11732532_at) / Fold change /veh JSRP1 (11732532_at) / RFU KRTAP10-11 (11738290_x_at) / Fold change /veh KRTAP10-11 (11738290_x_at) / RFU MYO3A (11730013_a_at) / Fold change /veh MYO3A (11730013_a_at) / RFU EBF3 (11725865_a_at) / Fold change /veh EBF3 (11725865_a_at) / RFU CAMK2N1 (11719241_x_at) / Fold change /veh CAMK2N1 (11719241_x_at) / RFU C5orf56 (11738088_a_at) / Fold change /veh C5orf56 (11738088_a_at) / RFU OLFML3 (11715873_a_at) / Fold change /veh OLFML3 (11715873_a_at) / RFU LOC100653217 /// NTM (11731650_a_at) / Fold change /veh LOC100653217 /// NTM (11731650_a_at) / RFU MAPK11 (11762145_a_at) / Fold change /veh MAPK11 (11762145_a_at) / RFU FIZ1 (11724087_x_at) / Fold change /veh FIZ1 (11724087_x_at) / RFU OASL (11726364_x_at) / Fold change /veh OASL (11726364_x_at) / RFU SOX15 (11748057_x_at) / Fold change /veh SOX15 (11748057_x_at) / RFU CD79A (11719716_a_at) / Fold change /veh CD79A (11719716_a_at) / RFU HIST1H1D (11736915_at) / Fold change /veh HIST1H1D (11736915_at) / RFU CASKIN2 (11723855_a_at) / Fold change /veh CASKIN2 (11723855_a_at) / RFU LOC730098 (11760151_x_at) / Fold change /veh LOC730098 (11760151_x_at) / RFU OR4N2 (11742367_at) / Fold change /veh OR4N2 (11742367_at) / RFU PRRT2 (11749266_a_at) / Fold change /veh PRRT2 (11749266_a_at) / RFU SNX32 (11753110_a_at) / Fold change /veh SNX32 (11753110_a_at) / RFU CDHR5 (11726645_a_at) / Fold change /veh CDHR5 (11726645_a_at) / RFU RCAN1 (11760418_a_at) / Fold change /veh RCAN1 (11760418_a_at) / RFU FAM167A (11723789_a_at) / Fold change /veh FAM167A (11723789_a_at) / RFU FAM26E (11764081_at) / Fold change /veh FAM26E (11764081_at) / RFU ISYNA1 (11749810_s_at) / Fold change /veh ISYNA1 (11749810_s_at) / RFU ACY1 (11761880_at) / Fold change /veh ACY1 (11761880_at) / RFU 11764098_at / Fold change /veh 11764098_at / RFU SAMD14 (11745864_x_at) / Fold change /veh SAMD14 (11745864_x_at) / RFU NPB (11741838_a_at) / Fold change /veh NPB (11741838_a_at) / RFU TMPRSS6 (11731388_a_at) / Fold change /veh TMPRSS6 (11731388_a_at) / RFU KRTAP10-2 (11738614_at) / Fold change /veh KRTAP10-2 (11738614_at) / RFU ARHGAP8 /// PRR5-ARHGAP8 (11727945_x_at) / Fold change /veh ARHGAP8 /// PRR5-ARHGAP8 (11727945_x_at) / RFU KRTAP5-7 /// NADSYN1 (11734609_at) / Fold change /veh KRTAP5-7 /// NADSYN1 (11734609_at) / RFU RASL12 (11751679_a_at) / Fold change /veh RASL12 (11751679_a_at) / RFU CDKN2B (11736163_a_at) / Fold change /veh CDKN2B (11736163_a_at) / RFU PRF1 (11729649_at) / Fold change /veh PRF1 (11729649_at) / RFU, ZNF638 /// ZNF638-IT1 / Fold change vs veh, ZNF638 /// ZNF638-IT1 / RFU, PANK3 / Fold change vs veh, PANK3 / RFU, SH3YL1 / Fold change vs veh, SH3YL1 / RFU, ZEB2 / Fold change vs veh, ZEB2 / RFU, NRIP1 / Fold change vs veh, NRIP1 / RFU, PTTG1IP / Fold change vs veh, PTTG1IP / RFU, CAPN2 / Fold change vs veh, CAPN2 / RFU, MED14 / Fold change vs veh, MED14 / RFU, SNORA58 / Fold change vs veh, SNORA58 / RFU, C1orf63 / Fold change vs veh, C1orf63 / RFU, LRRFIP1 / Fold change vs veh, LRRFIP1 / RFU, NDUFAF7 / Fold change vs veh, NDUFAF7 / RFU, SLC12A2 / Fold change vs veh, SLC12A2 / RFU, IBTK / Fold change vs veh, IBTK / RFU, ESF1 / Fold change vs veh, ESF1 / Fold change vs veh, TMEM50B / RFU, TAOK1 / Fold change vs veh, TAOK1 / RFU, ACBD3 / Fold change vs veh, ACBD3 / RFU, TMA16 / Fold change vs veh, TMA16 / RFU, RWDD3 / Fold change vs veh, RWDD3 / RFU, BCAT1 / Fold change vs veh, BCAT1 / RFU, EDEM3 / Fold change vs veh, EDEM3 / RFU, TMEM33 / Fold change vs veh, TMEM33 / RFU, WDR75 / Fold change vs veh, WDR75 / RFU, AHCTF1 / Fold change vs veh, AHCTF1 / RFU, TFRC / Fold change vs veh, TFRC / RFU, ZDHHC17 / Fold change vs veh, ZDHHC17 / RFU, NOM1 / Fold change vs veh, NOM1 / RFU, ARL8B / Fold change vs veh, ARL8B / RFU, ZBTB11 / Fold change vs veh, ZBTB11 / RFU, TAMM41 / Fold change vs veh, TAMM41 / RFU, KIAA1704 /// LOC100996395 / Fold change vs veh, KIAA1704 /// LOC100996395 / RFU, ING1 / Fold change vs veh, ING1 / RFU, TRMT61B / Fold change vs veh, TRMT61B / RFU, FUBP3 / Fold change vs veh, FUBP3 / RFU, TP53 / Fold change vs veh, TP53 / RFU, TNKS2 / Fold change vs veh, TNKS2 / RFU, ZFP14 / Fold change vs veh, ZFP14 / RFU, ACTR2 / Fold change vs veh, ACTR2 / RFU, PPP3R1 / Fold change vs veh, PPP3R1 / RFU, PIK3R1 / Fold change vs veh, PIK3R1 / RFU, HNRNPA1 / Fold change vs veh, HNRNPA1 / RFU, RNF170 / Fold change vs veh, RNF170 / RFU, ZNF28 / Fold change vs veh, ZNF28 / RFU, RNGTT / Fold change vs veh, RNGTT / RFU, OGT / Fold change vs veh, OGT / RFU, BRD1 / Fold change vs veh, BRD1 / RFU, MARS / Fold change vs veh, MARS / RFU, ZNF655 / Fold change vs veh, ZNF655 / RFU, FAHD1 / Fold change vs veh, FAHD1 / RFU, BDP1 / Fold change vs veh, BDP1 / RFU, LRRCC1 / Fold change vs veh, LRRCC1 / RFU, ARID1A / Fold change vs veh, ARID1A / RFU, ZNF146 / Fold change vs veh, ZNF146 / RFU, ZNF330 / Fold change vs veh, ZNF330 / RFU, GPN3 / Fold change vs veh, GPN3 / RFU, C9orf123 / Fold change vs veh, C9orf123 / RFU, N4BP2L2 / Fold change vs veh, N4BP2L2 / RFU, ARFIP1 / Fold change vs veh, ARFIP1 / RFU, FAM179B / Fold change vs veh, FAM179B / RFU, BCL10 / Fold change vs veh, BCL10 / RFU, UHRF1BP1L / Fold change vs veh, UHRF1BP1L / RFU, BET1 / Fold change vs veh, BET1 / RFU, CNOT2 / Fold change vs veh, CNOT2 / RFU, ZNF268 / Fold change vs veh, ZNF268 / Fold change vs veh, ZNF507 / RFU, DGCR2 / Fold change vs veh, DGCR2 / RFU, WDSUB1 / Fold change vs veh, WDSUB1 / Fold change vs veh, HSP90B1 /// MIR3652 / RFU, ADSS / Fold change vs veh, ADSS / RFU, GK / Fold change vs veh, GK / RFU, ZNF148 / Fold change vs veh, ZNF148 / RFU, TAF9 / Fold change vs veh, TAF9 / RFU, SLC1A5 / Fold change vs veh, SLC1A5 / RFU, SLMO2 / Fold change vs veh, SLMO2 / RFU, ABCC4 / Fold change vs veh, ABCC4 / RFU, LOC101060439 /// RAP1B / Fold change vs veh, LOC101060439 /// RAP1B / RFU, RFX7 / Fold change vs veh, RFX7 / RFU, GTPBP10 / Fold change vs veh, GTPBP10 / RFU, CNEP1R1 / Fold change vs veh, CNEP1R1 / RFU, BIVM-ERCC5 /// ERCC5 / Fold change vs veh, BIVM-ERCC5 /// ERCC5 / RFU, ILF3 / Fold change vs veh, ILF3 / RFU 11762660_at / Fold change /veh 11762660_at / RFU VCAN (11757783_s_at) / Fold change /veh VCAN (11757783_s_at) / RFU DDX43 (11728927_at) / Fold change /veh DDX43 (11728927_at) / RFU KRT8 (11758188_x_at) / Fold change /veh KRT8 (11758188_x_at) / RFU NKD1 (11759106_at) / Fold change /veh NKD1 (11759106_at) / RFU SRD5A1 (11742802_a_at) / Fold change /veh SRD5A1 (11742802_a_at) / RFU TPSAB1 /// TPSB2 (11721975_s_at) / Fold change /veh TPSAB1 /// TPSB2 (11721975_s_at) / RFU GSTM3 (11746129_a_at) / Fold change /veh GSTM3 (11746129_a_at) / RFU IL23R (11737362_x_at) / Fold change /veh IL23R (11737362_x_at) / RFU TMEM51 (11727254_a_at) / Fold change /veh TMEM51 (11727254_a_at) / RFU PIWIL2 (11732686_x_at) / Fold change /veh PIWIL2 (11732686_x_at) / RFU ORM1 (11744905_x_at) / Fold change /veh ORM1 (11744905_x_at) / RFU CCDC152 (11743942_at) / Fold change /veh CCDC152 (11743942_at) / RFU ECM1 (11717891_a_at) / Fold change /veh ECM1 (11717891_a_at) / RFU IL23R (11748794_a_at) / Fold change /veh IL23R (11748794_a_at) / RFU TNFAIP8L3 (11732012_x_at) / Fold change /veh TNFAIP8L3 (11732012_x_at) / RFU MBOAT4 (11741988_at) / Fold change /veh MBOAT4 (11741988_at) / RFU 11764193_at / Fold change /veh 11764193_at / RFU TMEM53 (11763286_at) / Fold change /veh TMEM53 (11763286_at) / RFU MAGEB2 (11727129_at) / Fold change /veh MAGEB2 (11727129_at) / RFU TMEM200A (11744735_a_at) / Fold change /veh TMEM200A (11744735_a_at) / RFU CCDC152 (11751479_a_at) / Fold change /veh CCDC152 (11751479_a_at) / RFU FAM211A (11726209_a_at) / Fold change /veh FAM211A (11726209_a_at) / RFU RGS16 (11746705_a_at) / Fold change /veh RGS16 (11746705_a_at) / RFU VCAN (11755009_s_at) / Fold change /veh VCAN (11755009_s_at) / RFU RHOB (11743442_s_at) / Fold change /veh RHOB (11743442_s_at) / RFU RGS16 (11720943_a_at) / Fold change /veh RGS16 (11720943_a_at) / RFU RGS16 (11720944_at) / Fold change /veh RGS16 (11720944_at) / RFU, VPS4B / Fold change vs veh, VPS4B / RFU, CREB1 / Fold change vs veh, CREB1 / RFU, DNAJC13 / Fold change vs veh, DNAJC13 / RFU, GNAQ / Fold change vs veh, GNAQ / RFU, CDK5R1 / Fold change vs veh, CDK5R1 / RFU, ZRANB3 / Fold change vs veh, ZRANB3 / RFU, CUL4A / Fold change vs veh, CUL4A / RFU, CCNY / Fold change vs veh, CCNY / RFU, UFL1 / Fold change vs veh, UFL1 / RFU, COG3 / Fold change vs veh, COG3 / RFU, DIAPH2 / Fold change vs veh, DIAPH2 / RFU, SKA2 / Fold change vs veh, SKA2 / RFU, AFF3 / Fold change vs veh, AFF3 / RFU, LMF1 / Fold change vs veh, LMF1 / RFU, IPO11 / Fold change vs veh, IPO11 / RFU, DFFB / Fold change vs veh, DFFB / RFU, FOXP1 / Fold change vs veh, FOXP1 / RFU, CARD8 / Fold change vs veh, CARD8 / RFU, STRN3 / Fold change vs veh, STRN3 / RFU, ADK / Fold change vs veh, ADK / RFU, RASSF2 / Fold change vs veh, RASSF2 / RFU, WIPF1 / Fold change vs veh, WIPF1 / RFU, LARP1B / Fold change vs veh, LARP1B / RFU, RASA1 / Fold change vs veh, RASA1 / RFU, RB1 / Fold change vs veh, RB1 / RFU, PPFIA1 / Fold change vs veh, PPFIA1 / RFU, MAT2A / Fold change vs veh, MAT2A / RFU, CCT5 / Fold change vs veh, CCT5 / RFU, WDR92 / Fold change vs veh, WDR92 / RFU, CUX1 / Fold change vs veh, CUX1 / RFU, TTC7A / Fold change vs veh, TTC7A / RFU, TMEM135 / Fold change vs veh, TMEM135 / RFU, DEPTOR / Fold change vs veh, DEPTOR / RFU, CPM / Fold change vs veh, CPM / RFU, DNAJB6 / Fold change vs veh, DNAJB6 / RFU, CACNA2D3 / Fold change vs veh, CACNA2D3 / RFU, DTX4 / Fold change vs veh, DTX4 / RFU, TFCP2 / Fold change vs veh, TFCP2 / RFU, GMCL1 /// GMCL1P1 / Fold change vs veh, GMCL1 /// GMCL1P1 / RFU, AEBP2 / Fold change vs veh, AEBP2 / RFU, SNHG1 /// SNORD22 /// SNORD25 /// SNORD26 /// SNORD27 /// SNORD28 /// SNORD29 /// SNORD31 / Fold change vs veh, SNHG1 /// SNORD22 /// SNORD25 /// SNORD26 /// SNORD27 /// SNORD28 /// SNORD29 /// SNORD31 / Fold change (Aza/veh), C12orf56 (ProbeSet 11735607_a_at) / Fold change (ACY-1035/veh), C12orf56 (ProbeSet 11735607_a_at) / Fold change (Aza/veh), FGFR1OP (ProbeSet 11751329_s_at) / Fold change (ACY-1035/veh), FGFR1OP (ProbeSet 11751329_s_at) / Fold change (Aza/veh), VPS36 (ProbeSet 11739960_a_at) / Fold change (ACY-1035/veh), VPS36 (ProbeSet 11739960_a_at) / RFU SYPL1 (11715823_x_at) / Fold change /veh SYPL1 (11715823_x_at) / RFU IGFBP7 (11715501_s_at) / Fold change /veh IGFBP7 (11715501_s_at) / RFU REEP3 (11722064_at) / Fold change /veh REEP3 (11722064_at) / RFU IGLL1 (11728026_x_at) / Fold change /veh IGLL1 (11728026_x_at): dose or concentration left out as unconfirmed. The settings on record: MV-4-11 cells, 48 hours.

Take `Nc1ccc(-c2cccs2)cc1NC(=O)c1ccc2c(c1)cc(C1CC1)n2CCN1CCOCC1` [ACY-1035]: the “RFU SAMD14 (11745864_x_at)” value is listed as 19.46 RFU.
